We go through one molecule from ChEMBL document CHEMBL5696441 (Nat Chem Biol, 2011).

For orientation: IC50 means the concentration that gives 50% inhibition.

The target in assay [1] is Dual specificity tyrosine-phosphorylation-regulated kinase 1B (Homo sapiens) (UniProt Q9Y463). Description: Inhibition of DYRK1B (unknown origin) assessed as remaining activity at 1 uM by Kinome scan method relative to control.
The subject of assay [2] is Receptor-type tyrosine-protein kinase FLT3 (Homo sapiens), P36888 [D835H]. The assay can be described thus: Inhibition of FLT3 D835H mutant (unknown origin) assessed as remaining activity at 1 uM by Kinome scan method relative to control.
Assay [3] addresses PAS domain-containing serine/threonine-protein kinase (Homo sapiens) (UniProt Q96RG2). Description: Inhibition of human PASK assessed as residual activity at 1 uM using RBER-CHKtide as substrate in presence of 33P-ATP by ProQinase assay relative to control.
Assay [4] deals with SRSF protein kinase 1 (Homo sapiens) (UniProt Q96SB4). Description: Inhibition of SRPK1 (unknown origin) assessed as remaining activity at 1 uM by Kinome scan method relative to control.
The subject of assay [5] is Tyrosine-protein kinase ABL1 (Homo sapiens), P00519 [F317I]. The assay can be described thus: Inhibition of human ABL1 F317I mutant assessed as residual activity at 1 uM using Poly(Ala,Glu,Lys,Tyr)6:2:5:1 as substrate in presence of 33P-ATP by ProQinase assay relative to control.
In assay [6] the target is Casein kinase I isoform epsilon (Homo sapiens) (UniProt P49674). Description: Inhibition of human CK1epsilon assessed as residual activity at 1 uM using casein as substrate in presence of 33P-ATP by ProQinase assay relative to control.
Assay [7] relates to Proto-oncogene tyrosine-protein kinase receptor Ret (Homo sapiens), P07949 [V804L]. The assay can be described thus: Inhibition of RET V804L (unknown origin) assessed as remaining activity at 1 uM by Kinome scan method relative to control.
Assay [8] can be described thus: Anti-inflammatory activity against human derived medium respond PBMC cells assessed as inhibition in stimulated IL-1ra cytokine release incubated for 2 hrs in the presence of LPS/SEB/aCD28 by Luminex based sandwich immunoassay. It is filed as functional, cell-based.
Assay [9] relates to Epidermal growth factor receptor (Homo sapiens), P00533 [UNDEFINED MUTATION]. Description: Inhibition of human EGFR d747-749/A750P mutant assessed as residual activity at 1 uM using PolyEY as substrate in presence of 33P-ATP by ProQinase assay relative to control.
The subject of assay [10] is Tyrosine-protein kinase ABL1 (Homo sapiens), P00519 [Y253F]. Description: Inhibition of ABL1 Y253F mutant (unknown origin) assessed as remaining activity at 1 uM by Kinome scan method relative to control.
The target of assay [11] is Mitogen-activated protein kinase 13 (Homo sapiens) (UniProt O15264). The assay can be described thus: Inhibition of human p38delta assessed as residual activity at 1 uM using RBER-CHKtide as substrate in presence of 33P-ATP by ProQinase assay relative to control.
Assay [12] deals with High affinity nerve growth factor receptor (Homo sapiens) (UniProt P04629). The assay can be described thus: Inhibition of human TRKA assessed as residual activity at 1 uM using PolyEY as substrate in presence of 33P-ATP by ProQinase assay relative to control.
The target of assay [13] is T1, Myosin light chain kinase (Homo sapiens) (UniProt Q32MK0).
T1 sequence (whole entry): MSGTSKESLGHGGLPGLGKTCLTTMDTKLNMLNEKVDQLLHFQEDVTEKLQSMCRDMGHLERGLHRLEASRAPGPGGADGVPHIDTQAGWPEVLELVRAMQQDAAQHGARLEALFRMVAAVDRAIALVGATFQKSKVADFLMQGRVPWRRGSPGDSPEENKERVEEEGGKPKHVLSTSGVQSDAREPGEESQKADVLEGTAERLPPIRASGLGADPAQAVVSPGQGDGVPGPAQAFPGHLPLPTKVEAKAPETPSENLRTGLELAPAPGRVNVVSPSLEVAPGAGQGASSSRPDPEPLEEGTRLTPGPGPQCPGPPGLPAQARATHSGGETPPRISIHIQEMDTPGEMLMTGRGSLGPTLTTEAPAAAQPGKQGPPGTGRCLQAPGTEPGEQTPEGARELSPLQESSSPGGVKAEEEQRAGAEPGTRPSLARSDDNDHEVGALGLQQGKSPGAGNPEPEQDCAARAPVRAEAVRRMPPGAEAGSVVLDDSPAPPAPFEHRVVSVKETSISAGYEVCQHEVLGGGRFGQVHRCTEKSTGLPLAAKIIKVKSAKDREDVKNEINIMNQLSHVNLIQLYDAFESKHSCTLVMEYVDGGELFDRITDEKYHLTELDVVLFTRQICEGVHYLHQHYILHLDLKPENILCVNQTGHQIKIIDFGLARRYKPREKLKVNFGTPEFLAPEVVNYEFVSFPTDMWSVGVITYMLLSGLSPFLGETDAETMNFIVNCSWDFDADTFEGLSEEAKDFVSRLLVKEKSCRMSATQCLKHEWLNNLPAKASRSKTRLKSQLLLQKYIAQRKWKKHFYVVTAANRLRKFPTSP
The assay can be described thus: Inhibition of human MYLK3 assessed as residual activity at 1 uM using RB-S6P as substrate in presence of 33P-ATP by ProQinase assay relative to control.

The target of assay [14] is Mitogen-activated protein kinase kinase kinase 3 (Homo sapiens) (UniProt Q99759). Description: Inhibition of MAP3K3 (unknown origin) assessed as remaining activity at 1 uM by Kinome scan method relative to control.
Assay [15] addresses Mitogen-activated protein kinase 10 (Homo sapiens) (UniProt P53779). The assay can be described thus: Inhibition of JNK3 (unknown origin) assessed as remaining activity at 1 uM by Kinome scan method relative to control.
Assay [16] addresses Serine/threonine-protein kinase Sgk2 (Homo sapiens) (UniProt Q9HBY8). The assay can be described thus: Inhibition of human SGK2 assessed as residual activity at 1 uM using RBER-GSK3(14-27) as substrate in presence of 33P-ATP by ProQinase assay relative to control.
Assay [17] addresses Activated CDC42 kinase 1 (Homo sapiens) (UniProt Q07912). The assay can be described thus: Inhibition of TNK2 (unknown origin) assessed as remaining activity at 1 uM by Kinome scan method relative to control.
In assay [18] the target is Tyrosine-protein kinase Blk (Homo sapiens) (UniProt P51451). The assay can be described thus: Inhibition of human BLK assessed as residual activity at 1 uM using polyEY as substrate in presence of 33P-ATP by ProQinase assay relative to control.
Assay [19] relates to Mast/stem cell growth factor receptor Kit (Homo sapiens), P10721 [T670I]. Description: Inhibition of human KIT T670I mutant assessed as residual activity at 1 uM using polyEY as substrate in presence of 33P-ATP by ProQinase assay relative to control.
The target in assay [20] is Rho-associated protein kinase 2 (Homo sapiens) (UniProt O75116). Description: Inhibition of human ROCK2 assessed as residual activity at 1 uM using RB-S6P as substrate in presence of 33P-ATP by ProQinase assay relative to control.
Assay [21] addresses Serine/threonine-protein kinase Chk2 (Homo sapiens) (UniProt O96017). Description: Inhibition of human CHK2 assessed as residual activity at 1 uM using bio-4xCHKT as substrate in presence of 33P-ATP by ProQinase assay relative to control.

Sequence of Epidermal growth factor receptor (Homo sapiens), P00533 [UNDEFINED MUTATION] (P00533 whole entry, looked up, stated change not applied): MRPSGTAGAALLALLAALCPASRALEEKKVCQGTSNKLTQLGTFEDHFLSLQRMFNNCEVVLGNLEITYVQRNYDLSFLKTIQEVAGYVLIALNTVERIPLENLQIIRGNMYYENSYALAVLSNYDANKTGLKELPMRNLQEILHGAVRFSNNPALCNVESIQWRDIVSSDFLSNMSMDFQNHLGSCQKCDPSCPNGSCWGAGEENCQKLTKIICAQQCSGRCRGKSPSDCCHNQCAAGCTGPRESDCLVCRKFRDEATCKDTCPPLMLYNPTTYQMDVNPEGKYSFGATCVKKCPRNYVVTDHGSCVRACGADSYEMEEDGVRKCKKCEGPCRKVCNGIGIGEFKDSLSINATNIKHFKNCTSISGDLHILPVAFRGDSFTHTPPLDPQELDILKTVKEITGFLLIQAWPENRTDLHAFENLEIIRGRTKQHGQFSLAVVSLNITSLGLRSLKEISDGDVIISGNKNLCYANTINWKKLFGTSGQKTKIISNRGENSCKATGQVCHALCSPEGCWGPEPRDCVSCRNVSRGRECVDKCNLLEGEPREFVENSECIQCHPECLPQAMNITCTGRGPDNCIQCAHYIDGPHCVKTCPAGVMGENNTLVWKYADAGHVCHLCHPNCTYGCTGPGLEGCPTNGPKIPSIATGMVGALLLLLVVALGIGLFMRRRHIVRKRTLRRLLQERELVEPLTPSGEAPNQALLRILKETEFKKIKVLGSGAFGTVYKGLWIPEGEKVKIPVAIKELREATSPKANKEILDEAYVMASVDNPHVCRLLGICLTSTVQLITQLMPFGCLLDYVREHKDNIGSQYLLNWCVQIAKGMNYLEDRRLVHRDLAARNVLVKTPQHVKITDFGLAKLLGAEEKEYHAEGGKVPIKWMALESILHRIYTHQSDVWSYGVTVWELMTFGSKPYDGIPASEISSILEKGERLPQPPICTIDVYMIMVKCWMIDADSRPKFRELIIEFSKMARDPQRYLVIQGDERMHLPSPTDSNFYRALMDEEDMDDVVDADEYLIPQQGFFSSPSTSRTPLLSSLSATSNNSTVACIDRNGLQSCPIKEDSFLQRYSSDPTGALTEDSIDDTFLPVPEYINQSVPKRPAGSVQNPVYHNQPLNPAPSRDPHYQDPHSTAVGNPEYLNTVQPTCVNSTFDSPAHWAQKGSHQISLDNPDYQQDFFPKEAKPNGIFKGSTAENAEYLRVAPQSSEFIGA
Sequence of SRSF protein kinase 1 (Homo sapiens) (Q96SB4 whole entry): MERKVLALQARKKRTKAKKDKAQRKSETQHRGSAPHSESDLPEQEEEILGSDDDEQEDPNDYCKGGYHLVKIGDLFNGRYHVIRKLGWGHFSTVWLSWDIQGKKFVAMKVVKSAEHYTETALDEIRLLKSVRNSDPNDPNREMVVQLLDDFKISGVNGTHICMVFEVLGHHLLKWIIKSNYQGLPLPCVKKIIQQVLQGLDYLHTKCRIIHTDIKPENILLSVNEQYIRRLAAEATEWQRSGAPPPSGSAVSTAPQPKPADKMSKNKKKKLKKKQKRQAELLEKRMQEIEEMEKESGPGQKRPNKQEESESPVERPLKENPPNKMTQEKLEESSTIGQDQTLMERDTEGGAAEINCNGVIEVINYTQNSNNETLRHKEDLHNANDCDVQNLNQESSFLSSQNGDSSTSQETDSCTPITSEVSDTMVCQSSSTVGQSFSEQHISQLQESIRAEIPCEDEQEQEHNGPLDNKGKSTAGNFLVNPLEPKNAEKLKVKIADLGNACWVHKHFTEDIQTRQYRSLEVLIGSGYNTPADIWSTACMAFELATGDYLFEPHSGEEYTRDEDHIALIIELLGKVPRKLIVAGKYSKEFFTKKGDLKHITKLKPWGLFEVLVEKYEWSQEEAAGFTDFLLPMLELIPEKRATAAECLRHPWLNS
Sequence of Dual specificity tyrosine-phosphorylation-regulated kinase 1B (Homo sapiens) (Q9Y463 whole entry, looked up): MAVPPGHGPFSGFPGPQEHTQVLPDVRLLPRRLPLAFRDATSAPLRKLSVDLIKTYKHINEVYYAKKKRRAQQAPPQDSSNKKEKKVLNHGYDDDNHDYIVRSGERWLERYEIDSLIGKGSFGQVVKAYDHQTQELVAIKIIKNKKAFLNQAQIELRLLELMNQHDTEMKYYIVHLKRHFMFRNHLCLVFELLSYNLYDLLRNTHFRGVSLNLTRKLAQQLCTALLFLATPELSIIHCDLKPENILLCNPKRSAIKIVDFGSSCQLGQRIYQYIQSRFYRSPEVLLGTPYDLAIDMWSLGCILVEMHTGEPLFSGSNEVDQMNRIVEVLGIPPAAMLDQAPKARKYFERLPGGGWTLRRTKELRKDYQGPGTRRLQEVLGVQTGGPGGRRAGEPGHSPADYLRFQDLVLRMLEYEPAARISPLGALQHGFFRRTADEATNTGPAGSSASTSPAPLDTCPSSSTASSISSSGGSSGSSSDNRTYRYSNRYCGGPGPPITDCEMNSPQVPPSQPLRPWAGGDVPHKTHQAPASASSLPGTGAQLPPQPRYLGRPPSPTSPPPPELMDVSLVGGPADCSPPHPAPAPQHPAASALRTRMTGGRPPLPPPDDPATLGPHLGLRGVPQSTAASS
Sequence of Rho-associated protein kinase 2 (Homo sapiens) (O75116 whole entry, looked up): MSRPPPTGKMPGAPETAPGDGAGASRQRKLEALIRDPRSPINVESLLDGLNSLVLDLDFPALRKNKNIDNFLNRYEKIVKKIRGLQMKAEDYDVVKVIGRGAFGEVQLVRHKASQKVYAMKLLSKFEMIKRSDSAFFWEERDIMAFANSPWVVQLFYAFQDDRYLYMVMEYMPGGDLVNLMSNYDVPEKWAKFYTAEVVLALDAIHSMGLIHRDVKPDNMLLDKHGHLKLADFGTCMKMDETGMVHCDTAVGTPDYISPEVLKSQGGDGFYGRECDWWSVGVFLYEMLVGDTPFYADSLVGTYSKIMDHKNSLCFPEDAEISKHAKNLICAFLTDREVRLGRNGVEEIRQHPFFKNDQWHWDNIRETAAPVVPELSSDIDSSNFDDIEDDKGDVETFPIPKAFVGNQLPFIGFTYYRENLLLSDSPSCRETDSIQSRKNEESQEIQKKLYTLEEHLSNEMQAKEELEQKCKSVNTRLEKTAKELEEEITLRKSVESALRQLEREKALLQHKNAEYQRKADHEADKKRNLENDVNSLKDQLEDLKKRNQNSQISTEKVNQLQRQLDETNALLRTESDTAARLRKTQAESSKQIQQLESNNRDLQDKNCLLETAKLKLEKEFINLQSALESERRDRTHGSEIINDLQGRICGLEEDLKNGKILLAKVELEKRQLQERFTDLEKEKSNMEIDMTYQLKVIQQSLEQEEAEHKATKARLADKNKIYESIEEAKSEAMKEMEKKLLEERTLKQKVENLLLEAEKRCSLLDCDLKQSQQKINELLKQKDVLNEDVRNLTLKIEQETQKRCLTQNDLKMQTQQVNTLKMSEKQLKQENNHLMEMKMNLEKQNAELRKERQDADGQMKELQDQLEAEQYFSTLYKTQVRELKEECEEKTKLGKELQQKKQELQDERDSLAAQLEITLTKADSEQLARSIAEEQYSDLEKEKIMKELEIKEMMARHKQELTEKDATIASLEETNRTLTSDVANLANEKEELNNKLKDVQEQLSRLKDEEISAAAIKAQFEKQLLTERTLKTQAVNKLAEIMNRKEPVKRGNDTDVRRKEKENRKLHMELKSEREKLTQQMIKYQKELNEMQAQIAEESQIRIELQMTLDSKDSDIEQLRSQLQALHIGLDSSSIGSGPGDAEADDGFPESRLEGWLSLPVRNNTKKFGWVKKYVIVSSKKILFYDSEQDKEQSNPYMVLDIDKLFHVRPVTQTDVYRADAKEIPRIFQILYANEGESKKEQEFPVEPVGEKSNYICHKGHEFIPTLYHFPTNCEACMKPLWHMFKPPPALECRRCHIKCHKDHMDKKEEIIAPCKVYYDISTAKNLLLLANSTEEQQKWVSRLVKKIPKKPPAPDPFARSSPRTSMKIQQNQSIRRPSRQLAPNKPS
Sequence of Mast/stem cell growth factor receptor Kit (Homo sapiens), P10721 [T670I] (P10721 whole entry T670I): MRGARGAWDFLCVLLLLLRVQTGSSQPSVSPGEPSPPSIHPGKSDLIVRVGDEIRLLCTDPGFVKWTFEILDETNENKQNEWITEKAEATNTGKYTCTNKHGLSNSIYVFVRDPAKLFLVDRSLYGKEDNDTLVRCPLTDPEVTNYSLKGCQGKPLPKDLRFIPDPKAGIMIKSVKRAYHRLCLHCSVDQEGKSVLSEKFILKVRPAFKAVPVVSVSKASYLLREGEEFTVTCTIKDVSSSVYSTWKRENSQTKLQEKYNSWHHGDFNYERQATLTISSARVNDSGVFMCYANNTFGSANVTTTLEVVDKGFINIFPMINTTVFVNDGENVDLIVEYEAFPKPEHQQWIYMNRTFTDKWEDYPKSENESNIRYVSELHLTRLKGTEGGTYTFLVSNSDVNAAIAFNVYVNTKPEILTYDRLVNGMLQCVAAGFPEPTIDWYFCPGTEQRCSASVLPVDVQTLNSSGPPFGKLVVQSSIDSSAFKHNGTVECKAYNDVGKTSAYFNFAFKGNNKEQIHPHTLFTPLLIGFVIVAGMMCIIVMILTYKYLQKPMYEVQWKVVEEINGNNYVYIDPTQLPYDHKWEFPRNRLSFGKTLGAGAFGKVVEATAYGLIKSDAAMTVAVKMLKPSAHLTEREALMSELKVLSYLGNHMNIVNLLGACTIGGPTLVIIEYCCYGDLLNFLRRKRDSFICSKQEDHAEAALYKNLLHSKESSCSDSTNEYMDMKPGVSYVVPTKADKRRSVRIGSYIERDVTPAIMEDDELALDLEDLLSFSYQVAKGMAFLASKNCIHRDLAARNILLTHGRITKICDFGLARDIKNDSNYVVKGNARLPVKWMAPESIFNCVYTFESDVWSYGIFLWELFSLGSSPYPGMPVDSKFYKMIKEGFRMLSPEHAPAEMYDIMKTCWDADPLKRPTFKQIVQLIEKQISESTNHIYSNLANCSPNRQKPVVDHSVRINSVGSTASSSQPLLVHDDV

As for `O=C1c2ccc(Nc3ccc(F)cc3F)cc2CCc2ccc(OC[C@H](O)CO)cc21` [Skepinone-L], the Activity in assay [1] was 82%; in assay [2], 88%; in assay [3], 88%; in assay [4], 100%; in [5] it was 102%; in assay [6] it was 86%. The Activity in assay [7] came out at 100%; in [9] it was 96%; in assay [10], 90%; in assay [11], 80%; in assay [12], 111%; in [13], 85%. Moreover, the Activity in assay [14] is 100%; in assay [15], 61%; in assay [16], 89%; in assay [17], 100%; in [18] it was 107%; in assay [19], 145%. For the same molecule, the Activity in assay [20] is 90%; in assay [21], 89%. Moreover, the IC50 in assay [8] came out at 0.87 µM.
